Assay results reported in paper PMC5627750 (International Journal of Nanomedicine, 2017).

Columns and labels:
[1] = system: MI rat models; set-up: species or system Sprague-Dawley rats; details: in vivo, iv, 10 mg/kg
[2] = format: physicochemical; details: pH 7.4
[3] = in vivo; details: male, Sprague-Dawley, rat, iv, 10 mg
[4] = male, Sprague-Dawley, rat, in vivo, 10 mg/kg

COc1cc2c(c(OC)c1OC)-c1c(cc3c(c1OC)OCO3)CC(C)C(C)C2 (centres unmarked) [Sch B solution, Schisandrin B]
infarct size [1]: 36.5% | time to complete release of Sch B [2]: ≤ 2 h | AUC(0-inf) [3]: 13700 ± 1540 ng·h/mL | AUC(0-t) [3]: 12400 ± 1310 ng·h/mL | Vd [3]: 18.5 ± 2.61 L/kg | clearance [3]: 65.7 mL/min/kg | half-life [3]: 55.8 ± 5.4 min | time until cleared from the circulation [4]: ≤ 4 h
